Data on four molecules can be found in US20240376055A1, “INHIBITORS OF TRANSGLUTAMINASES” (Zedira GmbH, priority 2021, published 2024).

The target in data set [1] is T1, recombinant human transglutaminase 2 (Homo sapiens, UniProt P21980).
T1 construct: purchased Zedira T022
T1 sequence (P21980 1-687): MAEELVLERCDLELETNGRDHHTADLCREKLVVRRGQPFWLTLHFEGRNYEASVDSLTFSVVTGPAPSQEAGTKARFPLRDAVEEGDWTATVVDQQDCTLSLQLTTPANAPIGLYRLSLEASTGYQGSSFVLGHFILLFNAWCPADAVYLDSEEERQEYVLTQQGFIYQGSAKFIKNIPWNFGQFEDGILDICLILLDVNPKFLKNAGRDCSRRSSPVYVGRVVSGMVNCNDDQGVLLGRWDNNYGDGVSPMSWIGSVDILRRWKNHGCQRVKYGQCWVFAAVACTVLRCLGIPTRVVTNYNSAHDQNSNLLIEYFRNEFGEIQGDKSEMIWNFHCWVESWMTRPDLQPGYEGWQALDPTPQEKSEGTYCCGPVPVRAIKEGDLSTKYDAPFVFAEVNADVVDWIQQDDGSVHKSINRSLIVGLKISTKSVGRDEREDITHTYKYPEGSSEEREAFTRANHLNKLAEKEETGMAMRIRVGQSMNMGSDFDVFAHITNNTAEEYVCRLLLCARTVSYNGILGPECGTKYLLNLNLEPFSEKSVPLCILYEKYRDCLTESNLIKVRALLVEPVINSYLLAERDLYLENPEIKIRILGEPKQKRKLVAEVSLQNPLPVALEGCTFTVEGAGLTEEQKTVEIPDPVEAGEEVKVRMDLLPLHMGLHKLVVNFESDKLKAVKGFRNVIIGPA
The experiment in a line: Transglutaminase assay (DCC-assay: dansylcadaverine incorporation into dimethylcasein). Format: biochemical. Particulars: for IC50: 10 nM TG2, 37° C., slope 20-30 min. On the procedure: To illustrate the advantage of branched alkyl moieties over aromatic moieties, we refer to reference compounds Ref. 2 (ZED1227, U.S. Pat. No. 9,434,763 B2) and Ref. 3 (A8, ZED1047). Inhibition data were determined using the classical fluorescent transamidation assay (dansylcadaverine incorporation into methylated casein, DCC-assay) as described [Büchold, C.; Hils, M.; Gerlach, U.; Weber, J.; Pelzer, C.; Heil, A.; Aeschlimann, D.; Pasternack, R. Features of ZED1227: The First-In-Class Tissue Transglutaminase Inhibitor Undergoing Clinical Evaluation for the Treatment of Celiac Disease. Cells 2022, 11, 1667. https://doi.org/10.3390/cells11101667]. Casein is one of the best known high molecular weight (24 kDa) protein substrates for transglutaminases. Please note, the IC50 value of Ref. 3 (A8) published in U.S. Pat. No. 9,434,763 B2 cannot be compared to the present data, relying on a fluorogenic isopeptidase assay.
To this extent, inhibition data were determined using the classical fluorescent transamidation assay (dansylcadaverine incorporation into methylated casein, DCC-assay) as described in Büchold et al. [Buchold, C.; Hils, M.; Gerlach, U.; Weber, J.; Pelzer, C.; Heil, A.; Aeschlimann, D.; Pasternack, R. Features of ZED1227: The First-In-Class Tissue Transglutaminase Inhibitor Undergoing Clinical Evaluation for the Treatment of Celiac Disease. Cells 2022, 11, 1667. https://doi.org/10.3390/cells11101667]. Casein is one of the best known high molecular weight (24 kDa) protein substrates for transglutaminases. Inhibition data of the inventive compounds was compared with inhibition of compounds disclosed in U.S. Pat. No. 9,434,763 B2, particularly, compound A8, which is denoted herein as Reference 3. It is noteworthy that the IC50 values of compounds A8 published in U.S. Pat. No. 9,434,763 B2 and E16 from U.S. Pat. No. 11,072,634 B2 cannot be compared to the present data, relying on a fluorogenic isopeptidase assay.
For the determination of potency of inhibitors against tissue transglutaminase, the incorporation of dansylcadaverine into dimethylcasein (Zedira product T036, Lorand et al., Anal Biochem, 1971, 44:221-31) was measured using recombinant human transglutaminase 2 (Zedira Product T022).
The tissue transglutaminase is diluted in buffer (50 mM Tris-HCl, 7.5 mM CaCl2), 150 mM NaCl, pH=7.4). The final concentration of TG2 in the assay is 10 nM. A 10 mM inhibitor stock solution is prepared in DMSO, and from this a serial 1:2-fold dilution series is prepared also in DMSO. […]
Increase in fluorescence is measured using λex=330 nm and λem=500 nm at 37° C. for 30 min. […]
Analysis of enzymatic activity is performed by calculation of the slope of an increase in fluorescence intensity. […]

The nature of data set [2]: Log D by shake flask method (octanol / PBS pH 7.4, HPLC). Particulars: octanol/phosphate-buffered saline; octanol / PBS pH 7.4, shake flask. Format: physicochemical. As to the method:
In order to classify the inventive compounds according to their lipophilicity, Log D values (distribution coefficient) were determined by means of the well-established shake flask method, measuring the partition of a compound between an octanol and phosphate-buffered saline (PBS, pH 7.4) by HPLC.
Compounds with a moderate lipophilicity (Log D values from 0 to 3) are usually advantaged for oral absorption, being in balance between solubility and permeability. However, sophisticated formulation of a compound might improve oral bioavailability for highly lipophilic compounds.

Data set [3] can be described thus: Caco-2 permeability assay (CacoReady kit). It counts as in vitro ADME. Particulars: human; Caco-2 barrier. On the procedure:
Permeability coefficients (Papp values) were obtained from Caco-2 barrier studies predicting oral/intestinal bioavailability of the tested compounds. The assays were performed by using CacoReady™ ready-to-use kits from ReadyCell according to the manufacturers protocol.

On to `CCNC(=O)C(=O)CC[C@H](NC(=O)c1ncc(OC)o1)C(=O)Nc1cccn(CCC(=O)NC2C3CC4CC(C3)CC2C4)c1=O` (stereo partly drawn) [Compound I-87, (S)-N1-(1-(3-(2-adamantylamino)-3-oxopropyl)-2-oxo-1,2-dihydropyridin-3-yl)-N6-ethyl-2-(5-methoxyoxazole-2-carboxamido)-5-oxohexanediamide], for which, in data set [1], the IC50 – broadly, the concentration that inhibits the measured activity by half – was 0.6 to 3.5 µM. Besides, in data set [2], the logD – broadly, lipophilicity at a set pH, counting ionised and neutral species – lay within 1 to 3. Further, the apparent permeability coefficient (Papp) (commonly a coefficient for how fast a substance crosses the barrier) in data set [3] was 1 to 10 ×10⁻⁶ cm/s.

As for `CCNC(=O)C(=O)CC[C@H](NC(=O)c1ccn(C)n1)C(=O)Nc1cccn(CC(=O)N[C@]23C[C@H]4C5CC6CC4[C@H](C2)C(C6)[C@H]5C3)c1=O` (single isomer, unassigned) [Compound I-80], the IC50 in data set [1] is 0.15 to 0.6 µM. This molecule also showed a log distribution coefficient (logD) in data set [2] of 1 to 3. Besides, the Papp in data set [3] was less than 1 ×10⁻⁶ cm/s.

For the molecule `CCC(CC)CNC(=O)Cn1cccc(NC(=O)[C@H](CCC(=O)C(=O)NC)NC(=O)c2cncn2C)c1=O` [Ref. 1, reference compound], the “fold more potent compared to Ref. 4” value in data set [1] (compared to Ref. 4, table 1) is “about 15 fold”.

Turning to `CCC(CC)CNC(=O)Cn1cccc(NC(=O)[C@H](CC/C=C/C(=O)OC)NC(=O)c2cncn2C)c1=O` [Ref. 2, reference compound], in data set [1] (DCC-assay, compared to Ref. 3 (A8)), the “fold more potent compared to Ref. 3” value worked out at 80 fold.
